# Assay results reported in PMC7722873 (Scientific Reports, 2020).
# Read-outs that look alike come from different tables or passages of the source. No end group written: not given here.
# Columns and labels:
# [1] = system: VEEV TC-83 vaccine strain; details: cited from earlier work
# [2] = system: wild-type Trinidad Donkey (TrD) strain of VEEV; details: cited from earlier work
# VEEV TC-83 [3] = format: cell-based, Venezuelan equine encephalitis virus
# VEEV TC-83 [4] = format: cell-based, Venezuelan equine encephalitis virus; remark: listed apart in the source
# VEEV TC-83 [5] = format: cell-based, Venezuelan equine encephalitis virus; remark: listed apart in the source
# VEEV TrD strain [6] = format: cell-based, Venezuelan equine encephalitis virus
# VEEV TrD strain [7] = format: cell-based, Venezuelan equine encephalitis virus; remark: listed apart in the source
# EEEV (GA97 strain) = format: cell-based, eastern equine encephalitis virus
# RVFV (MP-12 strain) = format: cell-based, Rift Valley fever virus
# VEEV TC-83 [8] = format: cell-based, Venezuelan equine encephalitis virus; remark: listed apart in the source
# [9] = system: 84 human inflammatory cytokines and receptors; format: cell-based
# [10] = system: 84 human inflammatory cytokines and receptors; format: cell-based; remark: listed apart in the source
# [11] = system: IFNγ, IL1α, IL1β, IL2, IL4, IL6, IL10, IL12p70, TNFα; format: cell-based, human
# [12] = system: IFNγ, IL1α, IL1β, IL2, IL4, IL6, IL10, IL12p70, TNFα; format: cell-based, human; remark: listed apart in the source
# HMC3 cells = details: 24 h
# VEEV TC-83 [13] = format: cell-based, Venezuelan equine encephalitis virus; remark: listed apart in the source
# VEEV TC-83 [14] = format: cell-based, Venezuelan equine encephalitis virus; remark: listed apart in the source
substance,measurement,setting,value
"LL-37 (LLGDFFRKSKEKIGKEFKRIVQRIKDFLRNLVPRTES; Antibacterial peptide LL-37; UniProt P49913 134-170, looked up)",inhibition of viral titers,[1],approximately 100 fold
same,inhibition of viral titers,[2],"~1,000 fold"
FAVVKFRFWVWWFRWR-NH2 [A2],decrease in extracellular genomic TC-83 RNA copy numbers,VEEV TC-83 [3],more than 50%
same,decrease in intracellular genomic TC-83 RNA copy numbers,VEEV TC-83 [3],more than 50%
same,decrease in TC-83 infectious titers,VEEV TC-83 [4],"~ 1,000 fold"
same,genomic TC-83 RNA copy numbers (intracellular and extracellular),VEEV TC-83 [5],reduced
same,decrease of TrD titers,VEEV TrD strain [6],about 100 fold
same,"TrD titer inhibition, cells treated at infection relative to pre-treated cells",VEEV TrD strain [7],tenfold
same,decrease of TrD titers,VEEV TrD strain [7],about 100 fold
same,inhibition of replication of EEEV,EEEV (GA97 strain),higher than tenfold
same,"lower levels of EEEV replication, pre-treated cells",EEEV (GA97 strain),~ 4.5 fold
same,inhibition of replication of RVFV,RVFV (MP-12 strain),less than tenfold
same,inhibition of VEEV attachment (amount of viral RNA entering cells),VEEV TC-83 [8],inhibited VEEV attachment to cells
same,"Fold Regulation, AIMP1",[9],-2.17
same,"Fold Regulation, B2M",[9],-2.51
same,"Fold Regulation, C5",[9],-3.11
same,"Fold Regulation, CCL1",[9],-2.21
same,"Fold Regulation, CCL3",[9],-11.1
same,"Fold Regulation, CCL4",[9],-12.54
same,"Fold Regulation, CCL7",[9],-3.26
same,"Fold Regulation, CCL8",[9],-6.18
same,"Fold Regulation, CCL13",[9],-2.73
same,"Fold Regulation, CCL17",[9],-2.71
same,"Fold Regulation, CCL20",[9],-2.91
same,"Fold Regulation, CCL23",[9],-2.03
same,"Fold Regulation, CCL24",[9],-2.6
same,"Fold Regulation, CCL26",[9],-2.44
same,"Fold Regulation, CCR1",[9],-2.78
same,"Fold Regulation, CCR2",[9],-7.36
same,"Fold Regulation, CCR3",[9],-2.71
same,"Fold Regulation, CCR5",[9],-3.23
same,"Fold Regulation, CCR6",[9],-5.15
same,"Fold Regulation, CCR8",[9],-2.77
same,"Fold Regulation, CD40LG",[9],-8.44
same,"Fold Regulation, CSF1",[9],-2.23
same,"Fold Regulation, CSF2",[9],-7.67
same,"Fold Regulation, CSF3",[9],-8.01
same,"Fold Regulation, CXCL1",[9],-2.79
same,"Fold Regulation, CXCL2",[9],-2.97
same,"Fold Regulation, CXCL3",[9],-8.92
same,"Fold Regulation, CXCL5",[9],-3.43
same,"Fold Regulation, CXCL6",[9],-3.46
same,"Fold Regulation, CXCL8",[9],-4.74
same,"Fold Regulation, CXCL9",[9],-2.67
same,"Fold Regulation, CXCR1",[9],-4.9
same,"Fold Regulation, CXCR2",[9],-2.22
same,"Fold Regulation, FASLG",[9],-2.27
same,"Fold Regulation, HPRT1",[9],-2.53
same,"Fold Regulation, IFNA2",[9],-4.07
same,"Fold Regulation, IL1A",[9],-40.4
same,"Fold Regulation, IL1B",[9],-4.37
same,"Fold Regulation, IL1R1",[9],-2.63
same,"Fold Regulation, IL1RN",[9],2.19
same,"Fold Regulation, IL3",[9],-2.76
same,"Fold Regulation, IL5",[9],-5.46
same,"Fold Regulation, IL5RA",[9],-4.55
same,"Fold Regulation, IL7",[9],9.88
same,"Fold Regulation, IL9",[9],-3.51
same,"Fold Regulation, IL9R",[9],-2.48
same,"Fold Regulation, IL10RA",[9],-3.22
same,"Fold Regulation, IL10RB",[9],-2.31
same,"Fold Regulation, IL13",[9],-4.71
same,"Fold Regulation, IL15",[9],-2.47
same,"Fold Regulation, IL16",[9],-2.42
same,"Fold Regulation, IL17A",[9],-10.02
same,"Fold Regulation, IL17F",[9],-13.11
same,"Fold Regulation, IL21",[9],-2.43
same,"Fold Regulation, IL27",[9],-2.99
same,"Fold Regulation, LTA",[9],-4.72
same,"Fold Regulation, LTB",[9],-3.31
same,"Fold Regulation, NAMPT",[9],-2.42
same,"Fold Regulation, OSM",[9],-9.67
same,"Fold Regulation, RPLP0",[9],-2.88
same,"Fold Regulation, SPP1",[9],-2.4
same,"Fold Regulation, TNF",[9],-9.95
same,"Fold Regulation, TNFRSF11B",[9],-4.24
same,"Fold Regulation, TNFSF4",[9],-2.68
same,"Fold Regulation, TNFSF10",[9],-2.78
same,"Fold Regulation, TNFSF11",[9],-4.37
same,"Fold Regulation, TNFSF13",[9],-6.12
same,"Fold Regulation, TNFSF13B",[9],-3.19
same,genes down regulated (twofold),[9],67 genes
same,genes out of 84 with greater than twofold change in regulation,[9],71 genes
same,genes upregulated (greater than twofold),[9],4 genes
same,"Fold Regulation, CCL2",[10],-2.07
same,genes above/below a twofold regulation change,[10],eight
same,secretion of cytokines from TC-83 infected cells,[11],inhibit secretion of cytokines
same,"production of cytokines, pro-inflammatory and anti-inflammatory, from uninfected cells",[12],decreased the production of cytokines
same,CC50,HMC3 cells,greater than 250 µg/mL
"ILPWKWPWWPWRR-NH2 [Indolicidin, indolicidin]",antiviral activity against VEEV,VEEV TC-83 [13],no antiviral activity
FQVVKFRFWVWWFRWR [G8],VEEV TC-83 titer inhibition,VEEV TC-83 [14],"comparable to a known inhibitor, bortezomib"
FQAVKFRFWVWWFRWR-NH2 [A3],decrease in extracellular genomic TC-83 RNA copy numbers,VEEV TC-83 [3],more than 50%
same,decrease in intracellular genomic TC-83 RNA copy numbers,VEEV TC-83 [3],more than 50%
same,decrease in TC-83 infectious titers,VEEV TC-83 [4],~ 100 fold
same,genomic TC-83 RNA copy numbers (intracellular and extracellular),VEEV TC-83 [5],reduced
same,decrease of TrD titers,VEEV TrD strain [6],about 100 fold
same,"TrD inhibitory response, pre-treatment relative to no pre-treatment",VEEV TrD strain [7],tenfold
same,decrease of TrD titers,VEEV TrD strain [7],about 100 fold
same,inhibition of replication of EEEV,EEEV (GA97 strain),higher than tenfold
same,"lower levels of EEEV replication, pre-treated cells",EEEV (GA97 strain),~ 4.5 fold
same,inhibition of replication of RVFV,RVFV (MP-12 strain),less than tenfold
same,inhibition of VEEV attachment (amount of viral RNA entering cells),VEEV TC-83 [8],tenfold
same,"Fold Regulation, C5",[9],-4.7
same,"Fold Regulation, CCL1",[9],-3.46
same,"Fold Regulation, CCL3",[9],-6.01
same,"Fold Regulation, CCL4",[9],-10.37
same,"Fold Regulation, CCL5",[9],-2.56
same,"Fold Regulation, CCL17",[9],-2.48
same,"Fold Regulation, CCL20",[9],-2.88
same,"Fold Regulation, CCL26",[9],-2.76
same,"Fold Regulation, CCR1",[9],-2.01
same,"Fold Regulation, CCR8",[9],-2.56
same,"Fold Regulation, CD40LG",[9],-13.61
same,"Fold Regulation, CSF1",[9],-2.16
same,"Fold Regulation, CSF2",[9],-6.65
same,"Fold Regulation, CSF3",[9],-2.47
same,"Fold Regulation, CX3CL1",[9],-40.25
same,"Fold Regulation, CXCL2",[9],-2.14
same,"Fold Regulation, CXCL3",[9],-7.92
same,"Fold Regulation, CXCL5",[9],-2.3
same,"Fold Regulation, CXCL8",[9],-3.42
same,"Fold Regulation, CXCL10",[9],-2.5
same,"Fold Regulation, CXCL12",[9],-2.21
same,"Fold Regulation, CXCL13",[9],-2.43
same,"Fold Regulation, IL1A",[9],-75.02
same,"Fold Regulation, IL1B",[9],-3.92
same,"Fold Regulation, IL1R1",[9],-2.45
same,"Fold Regulation, IL5",[9],-4.29
same,"Fold Regulation, IL5RA",[9],-6.83
same,"Fold Regulation, IL10RA",[9],-2.36
same,"Fold Regulation, IL10RB",[9],-3.04
same,"Fold Regulation, IL15",[9],-2.18
same,"Fold Regulation, IL16",[9],-2.19
same,"Fold Regulation, IL17F",[9],-17.44
same,"Fold Regulation, IL27",[9],-3.21
same,"Fold Regulation, LTB",[9],-2.77
same,"Fold Regulation, OSM",[9],-11.73
same,"Fold Regulation, RPLP0",[9],-2.15
same,"Fold Regulation, TNF",[9],-30.83
same,"Fold Regulation, TNFRSF11B",[9],-3.73
same,"Fold Regulation, TNFSF10",[9],-3.34
same,"Fold Regulation, TNFSF13B",[9],-4.76
same,genes down regulated (twofold),[9],60 genes
same,"Fold Regulation, CCL13",[10],2.44
same,"Fold Regulation, CCL16",[10],3.4
same,"Fold Regulation, CCL22",[10],3.4
same,"Fold Regulation, CX3CR1",[10],2.38
same,"Fold Regulation, CXCL9",[10],3.12
same,"Fold Regulation, FASLG",[10],2.15
same,"Fold Regulation, IL9R",[10],2.56
same,"Fold Regulation, IL33",[10],3.21
same,genes above/below a twofold regulation change,[10],30 genes
same,genes down-regulated (twofold),[10],2 genes
same,genes upregulated (twofold),[10],28 genes
same,secretion of cytokines from TC-83 infected cells,[11],inhibit secretion of cytokines
same,"production of cytokines, pro-inflammatory and anti-inflammatory, from uninfected cells",[12],decreased the production of cytokines
same,CC50,HMC3 cells,greater than 250 µg/mL
